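Each compound was tested at five concentrations against cells in 96-well plates for 48 hours. Here, GI50 denotes the concentration required for 50% inhibition of growth. TGI: total growth inhibition.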
What was measured:
Assay in all cases: NCI anticancer screen, dose series, 48 h
SK-MEL-28 melanoma = tested on: SK-MEL-28 melanoma
CCRF-CEM leukemia = tested on: CCRF-CEM leukemia
UACC-62 melanoma = tested on: UACC-62 melanoma
NCI-H522 lung = tested on: NCI-H522 lung
K-562 leukemia = tested on: K-562 leukemia
LOX IMVI melanoma = tested on: LOX IMVI melanoma
SN12C renal = tested on: SN12C renal
SNB-75 CNS = tested on: SNB-75 CNS
HCC-2998 colon = tested on: HCC-2998 colon
HL-60(TB) leukemia = tested on: HL-60(TB) leukemia

O=C(/C=C/N1CCN(c2cccc(C(F)(F)F)c2)CC1)c1ccc(Cl)cc1Cl
GI50 (SK-MEL-28 melanoma): 21.1 µM
TGI (SK-MEL-28 melanoma): 43.9 µM
GI50 (CCRF-CEM leukemia): 49.6 µM
TGI (CCRF-CEM leukemia): > 100 µM
GI50 (UACC-62 melanoma): 21.4 µM
TGI (UACC-62 melanoma): 41.8 µM
GI50 (NCI-H522 lung): 36.1 µM
TGI (NCI-H522 lung): > 100 µM
GI50 (K-562 leukemia): 35.8 µM
TGI (K-562 leukemia): > 100 µM
GI50 (LOX IMVI melanoma): 22.7 µM
TGI (LOX IMVI melanoma): 47.1 µM
GI50 (SN12C renal): 21.3 µM
TGI (SN12C renal): 40.6 µM

COc1ccc(C[C@H]2C[C@@H](O)[C@@H](C)C/C=C/Cc3cccc(O)c3C(=O)O2)cn1
GI50 (SNB-75 CNS): 17 µM
TGI (SNB-75 CNS): 73.4 µM
GI50 (SK-MEL-28 melanoma): 27.2 µM
TGI (SK-MEL-28 melanoma): 78.7 µM
GI50 (UACC-62 melanoma): 22.1 µM
TGI (UACC-62 melanoma): 64.2 µM
GI50 (NCI-H522 lung): 14.2 µM
TGI (NCI-H522 lung): 49.1 µM
GI50 (K-562 leukemia): 12.2 µM
TGI (K-562 leukemia): 28.6 µM
GI50 (HCC-2998 colon): 17.4 µM
TGI (HCC-2998 colon): 44.8 µM
GI50 (LOX IMVI melanoma): 19.1 µM
TGI (LOX IMVI melanoma): 37.7 µM
GI50 (SN12C renal): 19.4 µM
TGI (SN12C renal): 43.9 µM
GI50 (HL-60(TB) leukemia): 15.3 µM
TGI (HL-60(TB) leukemia): 38.4 µM

COc1cccc(-c2nn(-c3ccccc3)cc2-c2ccnc(NCCNC(=O)Nc3ccc(Cl)c(Cl)c3)c2)c1
GI50 (SNB-75 CNS): 1.43 µM
TGI (SNB-75 CNS): 5.96 µM
GI50 (SK-MEL-28 melanoma): 2.03 µM
TGI (SK-MEL-28 melanoma): 4.59 µM
GI50 (UACC-62 melanoma): 1.84 µM
TGI (UACC-62 melanoma): 4.51 µM
GI50 (NCI-H522 lung): 2.18 µM
TGI (NCI-H522 lung): 5.96 µM
GI50 (K-562 leukemia): 3.09 µM
TGI (K-562 leukemia): 11.1 µM
GI50 (HCC-2998 colon): 1.88 µM
TGI (HCC-2998 colon): 3.78 µM
GI50 (LOX IMVI melanoma): 1.66 µM
TGI (LOX IMVI melanoma): 3.21 µM
GI50 (SN12C renal): 2.39 µM
TGI (SN12C renal): 5.96 µM
GI50 (HL-60(TB) leukemia): 2.43 µM
TGI (HL-60(TB) leukemia): 6.85 µM

CCC1OCCN1C(C)C (stereo unspecified)
TGI (SK-MEL-28 melanoma): 92.2 µM
TGI (CCRF-CEM leukemia): > 100 µM
TGI (UACC-62 melanoma): > 100 µM
TGI (NCI-H522 lung): > 100 µM
TGI (K-562 leukemia): > 100 µM
TGI (HCC-2998 colon): > 100 µM
TGI (LOX IMVI melanoma): > 100 µM
TGI (SN12C renal): > 100 µM
TGI (HL-60(TB) leukemia): > 100 µM

O=C(N[C@@H]1CCCc2ccccc21)[C@H](CCC(=O)N1CCN(C2CCCCC2)CC1)N1C(=O)[C@@H](N2C(=O)OC[C@@H]2c2ccccc2)[C@H]1/C=C/c1ccccc1
GI50 (SNB-75 CNS): 1.32 µM
TGI (SNB-75 CNS): 4.19 µM
GI50 (SK-MEL-28 melanoma): 1.77 µM
TGI (SK-MEL-28 melanoma): 3.67 µM
GI50 (CCRF-CEM leukemia): 2.83 µM
TGI (CCRF-CEM leukemia): 8.87 µM
GI50 (UACC-62 melanoma): 1.86 µM
TGI (UACC-62 melanoma): 3.93 µM
GI50 (NCI-H522 lung): 1.76 µM
TGI (NCI-H522 lung): 4.11 µM
GI50 (HCC-2998 colon): 2.27 µM
TGI (HCC-2998 colon): 5.37 µM
GI50 (LOX IMVI melanoma): 1.68 µM
TGI (LOX IMVI melanoma): 3.41 µM
GI50 (SN12C renal): 3.72 µM
TGI (SN12C renal): 27.3 µM
GI50 (HL-60(TB) leukemia): 2.1 µM
TGI (HL-60(TB) leukemia): 5.71 µM

Cc1nnc2n1N=C(CC(=O)c1ccc(O)cc1O)CN2N
TGI (SK-MEL-28 melanoma): > 100 µM
TGI (CCRF-CEM leukemia): > 100 µM
TGI (UACC-62 melanoma): > 100 µM
TGI (K-562 leukemia): > 100 µM
TGI (HCC-2998 colon): > 100 µM
TGI (LOX IMVI melanoma): > 100 µM
TGI (SN12C renal): > 100 µM
TGI (HL-60(TB) leukemia): > 100 µM

CC1=NN(C(=O)CC(=O)Nc2cccc(Cl)c2)C(=O)C1N=Nc1ccc(S(N)(=O)=O)cc1 (stereo unspecified)
TGI (SNB-75 CNS): > 100 µM
TGI (SK-MEL-28 melanoma): > 100 µM
TGI (UACC-62 melanoma): > 100 µM
TGI (NCI-H522 lung): > 100 µM
TGI (HCC-2998 colon): > 100 µM
TGI (LOX IMVI melanoma): > 100 µM
TGI (SN12C renal): > 100 µM

CCN(CC)CCOc1ccc(/C=C2\C[C@H]3[C@@H]4CC=C5C[C@@H](OC(C)=O)CC[C@]5(C)[C@H]4CC[C@]3(C)[C@H]2OC(C)=O)cc1OC
GI50 (SK-MEL-28 melanoma): 12.4 µM
TGI (SK-MEL-28 melanoma): > 50 µM
GI50 (CCRF-CEM leukemia): 0.361 µM
TGI (CCRF-CEM leukemia): 6.77 µM
GI50 (UACC-62 melanoma): 11 µM
TGI (UACC-62 melanoma): 24.8 µM
GI50 (NCI-H522 lung): 17.4 µM
TGI (NCI-H522 lung): > 50 µM
GI50 (K-562 leukemia): 8.17 µM
TGI (K-562 leukemia): 28.4 µM
GI50 (HCC-2998 colon): 5.34 µM
TGI (HCC-2998 colon): 12.5 µM
GI50 (LOX IMVI melanoma): 18.1 µM
TGI (LOX IMVI melanoma): > 50 µM
GI50 (SN12C renal): 9.06 µM
TGI (SN12C renal): 21.3 µM
GI50 (HL-60(TB) leukemia): 9.57 µM
TGI (HL-60(TB) leukemia): 19.5 µM

Oc1cccc(-c2nc3ccccc3s2)c1
TGI (SNB-75 CNS): 61.8 µM
TGI (SK-MEL-28 melanoma): > 100 µM
TGI (CCRF-CEM leukemia): > 100 µM
TGI (UACC-62 melanoma): > 100 µM
TGI (NCI-H522 lung): 51 µM
TGI (K-562 leukemia): > 100 µM
TGI (LOX IMVI melanoma): 77 µM
TGI (SN12C renal): > 100 µM
TGI (HL-60(TB) leukemia): > 100 µM

COc1cc2c3c(c1OC)-c1ccccc1C(C(OC(C)=O)c1ccccc1)C3N(C)CC2 (stereo unspecified)
TGI (SNB-75 CNS): > 100 µM
TGI (SK-MEL-28 melanoma): > 100 µM
TGI (CCRF-CEM leukemia): > 100 µM
TGI (UACC-62 melanoma): > 100 µM
TGI (NCI-H522 lung): > 100 µM
TGI (HCC-2998 colon): > 100 µM
TGI (LOX IMVI melanoma): > 100 µM
TGI (SN12C renal): > 100 µM
TGI (HL-60(TB) leukemia): > 100 µM

COC(=O)/C(=N\NC(=O)c1ccccc1O)C(C#N)c1ccc(Cl)cc1 (stereo unspecified)
TGI (SK-MEL-28 melanoma): > 100 µM
TGI (CCRF-CEM leukemia): > 100 µM
TGI (UACC-62 melanoma): > 100 µM
TGI (NCI-H522 lung): 72.3 µM
TGI (K-562 leukemia): > 100 µM
TGI (HCC-2998 colon): 88.7 µM
TGI (SN12C renal): > 100 µM
TGI (HL-60(TB) leukemia): > 100 µM

CC(=O)NC1C(OCc2ccccc2)OC(COC(=O)CCCCCCCCCCNC(=O)c2cccc3c(=O)c4ccccc4[nH]c23)C(O)C1OC(C)C(=O)NC(C)C(=O)NC(CCC(N)=O)C(N)=O (stereo unspecified)
TGI (SNB-75 CNS): > 100 µM
TGI (SK-MEL-28 melanoma): > 100 µM
TGI (UACC-62 melanoma): > 100 µM
TGI (NCI-H522 lung): > 100 µM
TGI (K-562 leukemia): > 100 µM
TGI (LOX IMVI melanoma): > 100 µM
TGI (SN12C renal): > 100 µM
TGI (HL-60(TB) leukemia): > 100 µM

CCOC(=O)CCC1(C(=O)OC)CCCC1=O (stereo unspecified)
TGI (SNB-75 CNS): > 100 µM
TGI (SK-MEL-28 melanoma): > 100 µM
TGI (NCI-H522 lung): > 100 µM
TGI (K-562 leukemia): > 100 µM
TGI (HCC-2998 colon): > 100 µM
TGI (LOX IMVI melanoma): > 100 µM
TGI (HL-60(TB) leukemia): > 100 µM

Cc1ccc(C2=Nc3c(N)ncnc3NC(c3cccc(Nc4ccnc5cc(C(F)(F)F)ccc45)c3)C2)cc1 (stereo unspecified)
GI50 (SK-MEL-28 melanoma): 3.81 µM
TGI (SK-MEL-28 melanoma): 31.4 µM
GI50 (CCRF-CEM leukemia): 3.85 µM
TGI (CCRF-CEM leukemia): > 100 µM
GI50 (UACC-62 melanoma): 4.78 µM
TGI (UACC-62 melanoma): 26.8 µM
GI50 (NCI-H522 lung): 2.27 µM
TGI (NCI-H522 lung): 7.51 µM
GI50 (K-562 leukemia): 3.44 µM
TGI (K-562 leukemia): > 100 µM
GI50 (HCC-2998 colon): 2.59 µM
TGI (HCC-2998 colon): 10.5 µM
GI50 (LOX IMVI melanoma): 2.34 µM
TGI (LOX IMVI melanoma): 6.13 µM
GI50 (SN12C renal): 4.77 µM
TGI (SN12C renal): > 100 µM
GI50 (HL-60(TB) leukemia): 2.95 µM
TGI (HL-60(TB) leukemia): 74.7 µM

O=C1OCC(C(=O)c2cccc(O)c2)C1=O (stereo unspecified)
TGI (SNB-75 CNS): > 100 µM
TGI (SK-MEL-28 melanoma): > 100 µM
TGI (UACC-62 melanoma): > 100 µM
TGI (NCI-H522 lung): > 100 µM
TGI (HCC-2998 colon): > 100 µM
TGI (LOX IMVI melanoma): > 100 µM
TGI (SN12C renal): > 100 µM

N#Cc1c2c(c(N=[N+]=[N-])n3c1nc1ccccc13)CCCC2
TGI (SNB-75 CNS): 4.04 µM
TGI (SK-MEL-28 melanoma): 14 µM
TGI (K-562 leukemia): 8.21 µM
TGI (HCC-2998 colon): 25.8 µM
TGI (LOX IMVI melanoma): 3.52 µM
TGI (SN12C renal): 4.22 µM
TGI (HL-60(TB) leukemia): 8.6 µM

CC(C)c1ccc(/C=C(\NC(=O)c2ccccc2)c2nc3ccccc3[nH]2)cc1
TGI (SNB-75 CNS): > 100 µM
TGI (CCRF-CEM leukemia): > 100 µM
TGI (UACC-62 melanoma): > 100 µM
TGI (NCI-H522 lung): 89.5 µM
TGI (K-562 leukemia): > 100 µM
TGI (LOX IMVI melanoma): > 100 µM
TGI (SN12C renal): > 100 µM

O=C(OCc1ccccc1CN1CCOCC1)c1ccc(Br)cc1
TGI (SNB-75 CNS): > 100 µM
TGI (SK-MEL-28 melanoma): > 100 µM
TGI (UACC-62 melanoma): > 100 µM
TGI (NCI-H522 lung): > 100 µM
TGI (HCC-2998 colon): > 100 µM
TGI (LOX IMVI melanoma): > 100 µM
TGI (SN12C renal): > 100 µM

COc1ccc([Se]c2ccc(OC)cc2OC)c(OC)c1
TGI (SNB-75 CNS): 36.9 µM
TGI (SK-MEL-28 melanoma): 77.1 µM
TGI (CCRF-CEM leukemia): > 100 µM
TGI (UACC-62 melanoma): > 100 µM
TGI (NCI-H522 lung): 38.2 µM
TGI (K-562 leukemia): > 100 µM
TGI (LOX IMVI melanoma): > 100 µM
TGI (SN12C renal): > 100 µM
TGI (HL-60(TB) leukemia): > 100 µM
